Laboratory results reported in BigSolDB 2.1.

Cc1nc2n(c(=O)c1CCN1CCC(c3noc4cc(F)ccc34)CC1)CCCC2
solubility (mole fraction)
Details | 278.15 K | 283.15 K | 288.15 K | 293.15 K | 298.15 K | 303.15 K | 308.15 K | 313.15 K
in acetone | 0.000769 | 0.00111 | 0.00135 | 0.00166 | 0.00208 | 0.00251 | 0.00309 | 0.0039
in ethanol | 0.000876 | 0.00107 | 0.00133 | 0.00156 | 0.00209 | 0.00259 | 0.00333 | 0.00427
in ethyl acetate | 0.00113 | 0.00144 | 0.00165 | 0.00207 | 0.00248 | 0.00297 | 0.00373 | 0.00464
in isobutyl acetate | 0.000791 | 0.00106 | 0.00129 | 0.0015 | 0.00183 | 0.00226 | 0.00266 | 0.0033
in isopropanol | 0.00047 | 0.0006 | 0.000714 | 0.000853 | 0.00111 | 0.00134 | 0.00193 | 0.00271
in isopropyl acetate | 0.000742 | 0.000884 | 0.00102 | 0.00125 | 0.0015 | 0.00186 | 0.00225 | 0.0027
in methanol | 0.00204 | 0.00226 | 0.00273 | 0.00331 | 0.00407 | 0.00506 | 0.00623 | 0.00787
in methyl acetate | 0.00124 | 0.00153 | 0.0018 | 0.00219 | 0.00264 | 0.00329 | 0.00397 | 0.00489
in n-butanol | 0.00144 | 0.00183 | 0.00225 | 0.00291 | 0.00368 | 0.00479 | 0.00621 | 0.00792
in n-butyl acetate | 0.00112 | 0.00129 | 0.00159 | 0.00189 | 0.00241 | 0.00282 | 0.00341 | 0.00386
in n-propanol | 0.00111 | 0.00149 | 0.00199 | 0.00248 | 0.0031 | 0.00409 | 0.00532 | 0.00683
in n-propyl acetate | 0.00116 | 0.00147 | 0.00166 | 0.00202 | 0.00242 | 0.00288 | 0.00357 | 0.00424
in sec-butanol | 0.00187 | 0.00244 | 0.00286 | 0.00361 | 0.00464 | 0.00604 | 0.00769 | 0.00987
